Measured values taken from patent publication US20240108611A1, “COMPOSITION FOR PREVENTING OR TREATING METABOLIC DISEASES, CONTAINING TORSEMIDE AND CROMOLYN” (ONCOCROSS CO., LTD., priority 2021, published 2024).

What was measured:
[1] = tested on: nonalcoholic steatohepatitis (NASH) animal model; assay: Body weight change in nonalcoholic steatohepatitis (NASH) animal model, high fat diet; assay type: in vivo, ICR mice; conditions: high-fat diet mice; 10 mg/kg each drug i.p. three times a week for 6 weeks
NASH animal model = assay: Triglycerides in liver tissue by Oil Red O staining in NASH animal model; conditions: HFD mice after 13 weeks of diet and drug administration

## O=C(O)c1cc(=O)c2c(OCC(O)COc3cccc4oc(C(=O)O)cc(=O)c34)cccc2o1 [cromolyn]
[1]
  change in body weight compared to high-fat diet control group (HFD PBS): no significant change
NASH animal model
  triglycerides in liver tissue (Oil Red O staining) versus HFD PBS group: relatively decreased
